The results in this text go back to paper PMC12526004, “Tiliroside Suppresses Uric Acid Production in Hepatocytes and Attenuates Purine-Induced Hyperuricemia in Male ICR Mice” (Molecules, 2025).

In one assay the test system is NPT4. Description: Renal mRNA expression, real-time quantitative PCR. It counts as in vivo, male ICR mice. The note with it: three days. As for the experimental part: (§1) The antihyperuricemic effect of tiliroside was evaluated using mice with purine-induced hyperuricemia, following a previously described procedure. […] The test compounds were suspended in 0.2 mL of 0.5% CMC-Na based on the average body weight of each group. The actual volume administered was adjusted according to the individual body weight of each mouse. Prior to each administration, the mice were fasted for four hours. The negative and hyperuricemic control groups received the vehicle (0.5% CMC-Na) alone. […] GMP and IMP were dissolved in 0.2 mL of PBS (–) based on the average body weight of all mice. The injection volume was similarly adjusted according to each mouse’s body weight. These injections were performed one hour after the final oral administration of the test compounds or vehicle. The negative control group received PBS (–) alone. […] The liver and kidneys were then excised. Blood samples were centrifuged at 5000× g for 10 min at 4 °C to obtain plasma, which was stored at −80 °C until analysis. To assess renal gene expression, four mice per group were selected based on plasma UA levels approximating the group mean. Total RNA was extracted from kidney tissues of the negative control, hyperuricemic model, allopurinol-treated, and high-dose tiliroside-treated groups using the Trizol-chloroform method (Thermo Fisher Scientific). Reverse transcription was performed with 1 µg of RNA using iScript reverse transcriptase (Bio-Rad, Hercules, CA, USA). Quantitative PCR was conducted using the MyiQ2 real-time PCR system (Bio-Rad), with GAPDH as the reference gene.

The next assay deals with URAT1. Put plainly: Renal mRNA expression, real-time quantitative PCR. It counts as in vivo, male ICR mice. As to conditions: three days, vs hyperuricemic control. As for the experimental part:
as §1

In a further assay the test system is OAT1. Put plainly: Renal mRNA expression, real-time quantitative PCR. It counts as in vivo, male ICR mice. The note with it: three days. Here is the method:
as §1

Another assay deals with AML12 hepatocytes. Put plainly: UA production by AML12 cells stimulated with UA precursors. The note with it: for maximum reduction of UA production: guanosine + inosine (GI mixture) 100 µM each, 2 h, vs control (0 µM); for UA production: UA precursor xanthine. Type of assay: cell-based. Here is the method: AML12 hepatocytes used in this study were acquired from ATCC (CRL-2254), Manassas, VA, USA. AML12 cells were maintained in DMEM/F-12 (Life Technologies, Grand Island, NY, USA) supplemented with 10% (v/v) fetal bovine serum (FBS; Hyclone, Logan, UT, USA), recombinant human insulin (5 µg/mL), human transferrin (5 µg/mL), and dexamethasone (40 ng/mL), each obtained from FUJIFILM Wako, as well as selenium (3 ng/mL, Sigma-Aldrich) and penicillin–streptomycin mixed solution (100 U/mL penicillin and 100 µg/mL streptomycin, Nacalai Tesque), under a humidified atmosphere of 5% CO2 at 37 °C. Culture of AML12 hepatocytes and measurement of UA production were conducted following a previously reported protocol.Cells were seeded at a density of 1.0 × 10^5 cells per well in 24-well plates and cultured for 72 h in complete medium, followed by 24 h in serum-free DMEM/F-12. After serum deprivation, cells were rinsed once with calcium- and magnesium-free phosphate-buffered saline [PBS (–)] and incubated in 200 µL of balanced salt solution (BSS) containing […], 5 mM KCl, 1 mM MgCl2, 0.8 mM CaCl2, 25 mM NaHCO3, 1 mM NaH2PO4, 10 mM HEPES, and 5 mM glucose. […] The final concentration of DMSO in all samples was adjusted to 0.15%. After a 2-h incubation, 200 µL of the reaction mixture was collected for UA quantification. The UA concentration in BSS was used as an indicator of UA production. Subsequently, cells were washed with PBS (–) and lysed in 300 µL of buffer containing 50 mM Tris and 1 mM sodium phosphate (pH 7.5). Lysates were sonicated and centrifuged (12,000× g, 5 min, 4 °C), and the supernatants were used for protein quantification using the Pierce™ BCA Protein Assay Kit (Thermo Fisher Scientific Inc., Waltham, MA, USA). UA levels were measured using the uricase-based Uric Acid C-Test Wako (FUJIFILM Wako). UA production was expressed as nanomoles per 2 h per milligram of cellular protein (nmol/2 h/mg protein).

The subject of assay [1] is mice with purine-induced hyperuricemia. Description: Hepatic UA level in hyperuricemic model mice. Type of assay: in vivo, male ICR mice. As to conditions: three days; for Hepatic UA Level: mean ± SEM. As for the experimental part: The antihyperuricemic effect of tiliroside was evaluated using mice with purine-induced hyperuricemia, following a previously described procedure. […] The test compounds were suspended in 0.2 mL of 0.5% CMC-Na based on the average body weight of each group. The actual volume administered was adjusted according to the individual body weight of each mouse. Prior to each administration, the mice were fasted for four hours. The negative and hyperuricemic control groups received the vehicle (0.5% CMC-Na) alone. […] GMP and IMP were dissolved in 0.2 mL of PBS (–) based on the average body weight of all mice. The injection volume was similarly adjusted according to each mouse’s body weight. These injections were performed one hour after the final oral administration of the test compounds or vehicle. The negative control group received PBS (–) alone. […] The liver and kidneys were then excised. Blood samples were centrifuged at 5000× g for 10 min at 4 °C to obtain plasma, which was stored at −80 °C until analysis. Liver samples preparation was performed according to the methods previously described. Each portion of the liver tissue was processed for a specific analysis. One portion was homogenized in ice-cold 100 mM Tris-HCl buffer (pH 7.5), followed by sonication and centrifugation at 10,000× g for 5 min at 4 °C. The resulting supernatant was collected for the determination of UA levels. Another portion was treated similarly using Tris-HCl buffer containing 1 mM EDTA-2Na, and the supernatant was used to measure XO activity. The final portion was homogenized in ice-cold RIPA lysis buffer (Nacalai Tesque) and centrifuged under the same conditions, and the resulting supernatant was used for Western blot analysis. UA concentrations in plasma and liver homogenates were determined using the uricase-based Uric Acid C-Test Wako. Protein concentrations in the liver samples were measured with the Pierce™ BCA Protein Assay Kit. Liver UA levels were expressed as milligrams per gram of liver protein (mg/g protein).

Consider `Oc1ncnc2[nH]ncc12` [Allopurinol, allopurinol, reference compound], for which, in the assay with NPT4 (10 mg/kg oral), the “renal NPT4 mRNA expression” value is “no significant differences”. In the assay with URAT1 (10 mg/kg oral), the “renal URAT1 mRNA expression” value is listed as “significantly downregulated”. Also, in the assay with OAT1 (10 mg/kg oral), the “renal OAT1 mRNA expression” value is on record as “no significant differences”. Moreover, the “maximum reduction of UA production” value in the assay with AML12 hepatocytes (1 µM) is listed as “approximately 94.6%”. In assay [1] (10 mg/kg body weight oral), the “Hepatic UA Level” value is on record as 0.60 ± 0.03 mg/g Protein.
For the molecule `O=C(/C=C/c1ccc(O)cc1)OC[C@H]1O[C@@H](Oc2c(-c3ccc(O)cc3)oc3cc(O)cc(O)c3c2=O)[C@H](O)[C@@H](O)[C@@H]1O` [Tiliroside, kaempferol-3-O-(6′′-p-coumaroyl)-glucoside], the “renal NPT4 mRNA expression” value with NPT4 (300 mg/kg oral) is given as “no significant differences”. The “renal URAT1 mRNA expression” value in the assay on URAT1 (300 mg/kg oral) is listed as “significantly downregulated”. For the same molecule, the “renal OAT1 mRNA expression” value in the assay on OAT1 (300 mg/kg oral) was “no significant differences”. Also, the values for the UA production in the assay with AML12 hepatocytes (10 µM), in the assay on AML12 hepatocytes (30 µM) and in the assay with AML12 hepatocytes (100 µM) were 82.7 ± 2.4 nmol/2 h/mg protein, 45.4 ± 1.8 nmol/2 h/mg protein and 28.0 ± 1.2 nmol/2 h/mg protein, respectively. Besides, the “maximum reduction of UA production” value in the assay with AML12 hepatocytes (100 µM) is recorded as “approximately 86.6%”. Further, the figures for the “Hepatic UA Level” value in assay [1] (50 mg/kg oral), in assay [1] (100 mg/kg oral) and in assay [1] (300 mg/kg oral) were 1.30 ± 0.16 mg/g Protein, 1.13 ± 0.16 mg/g Protein and 0.79 ± 0.11 mg/g Protein, respectively. Moreover, in assay [1] (300 mg/kg oral, hyperuricemic mice), the “lowering of hepatic UA level” value is recorded as around 55%.
